Test results published in ChEMBL document CHEMBL5120954, “Novel MRGX2 Antagonists for Treating Diseases” (ACS Med Chem Lett, 2022).

The compounds below were run against T1, Mas-related G-protein coupled receptor member X2 (Homo sapiens, UniProt Q96LB1) (assay: Antagonist activity at human MRGPRX2 expressed in HEK293 cells co-expressing mouse Galpha15 assessed as inhibition of Cortistatin-14 induced Ca2+ mobilization preincubated for 30 mins followed by Cortistatin-14 addition by FLIPRtetra-calcium mobilization assay).
T1 sequence (Q96LB1 whole entry): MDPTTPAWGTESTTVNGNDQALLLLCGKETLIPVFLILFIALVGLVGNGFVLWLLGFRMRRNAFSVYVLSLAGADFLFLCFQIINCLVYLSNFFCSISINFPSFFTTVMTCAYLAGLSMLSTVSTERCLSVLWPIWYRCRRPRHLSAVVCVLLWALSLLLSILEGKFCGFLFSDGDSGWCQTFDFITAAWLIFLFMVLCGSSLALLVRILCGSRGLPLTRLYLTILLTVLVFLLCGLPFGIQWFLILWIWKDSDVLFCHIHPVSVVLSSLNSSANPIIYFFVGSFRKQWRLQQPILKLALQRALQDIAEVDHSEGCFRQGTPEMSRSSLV
Type: functional, cell-based
Work on CC(C(=O)Nc1ccc(Oc2cnc(F)cc2Cl)cn1)N1CCC(F)(F)[C@@H](c2ccc(=O)[nH]c2)C1 (stereo not given in full) yielded an IC50 of no more than 10 nM. Work on CC(C(=O)Nc1ccc(Oc2ccc(F)cc2)cn1)C1CCC(F)(F)C(c2ccc(=O)[nH]c2)C1 (stereo not given) yielded an IC50 of no more than 10 nM. Work on CC(C(=O)Nc1ccc(Oc2ccccc2)cn1)N1CCC(F)(F)[C@@H](c2c[nH]c(=O)c(CN)c2)C1 (stereo not given in full) yielded an IC50 of no more than 10 nM. With CC(C(=O)Nc1ccc(Oc2ccc(F)cc2)cn1)N1CCC(F)(F)C(c2c[nH]c(=O)c(CNCCO)c2)C1 (stereo not given) the IC50 was no more than 10 nM. Work on C[C@@H](C(=O)Nc1ccc(Oc2ccc(F)cc2F)cn1)N1CCC(F)(F)[C@@H](c2c[nH]c(=O)c(CS(C)(=O)=O)c2)C1 yielded an IC50 of no more than 10 nM.
